Data reported in article PMC8199613, “Discovery of Novel Small-Molecule Inhibitors of PD-1/PD-L1 Interaction via Structural Simplification Strategy” (Molecules, 2021).
Converted amounts (≈) assume the structure as drawn. “Also recorded” adds a separate entry of the source.

What was measured:
Water solubility by HPLC = assay type: physicochemical; conditions: aqueous buffer, thermodynamic from solid, pH 7.4, PBS
Experimental: The aqueous solubility was estimated by HPLC. The HPLC analysis was performed on a Shimadzu LC-20AT machine with a BDS Hypersil C18 column, and the column temperature was at 28 °C. Mobile phase B (100% MeOH) and mobile phase A (100% water) were used in a gradient elution program (0 min: 30% (B), 2 min: 50% (B), 8 min: 95% (B), 14 min: 95% (B), 18 min: 70% (B), 20 min: 30% (B)) with a flow rate of 1.0 mL/min at […]. Methanol was used to configure an accurate compounds concentration to calculate the standard curve. The excess test compound was dissolved in PBS (KH2PO4 0.24 g + KCl 0.2 g + NaCl 8 g + Na2HPO4·12H2O 3.58 g + 1 L water) and then analyzed by HPLC.

MDA-MB-231 cells = test: MTT non-specific cytotoxicity assay, MDA-MB-231; assay type: cell-based; conditions: for EC50: Homo sapiens, MDA-MB-231, 48 h, read-out: EC50 (μM)/MDA-MB-231 Toxicity; for direct killing of tumor cells: as shown in Table 3
Experimental: (§1) Considering that the toxicity of the compound might strongly interfere with the assay if the tested compounds could block PD-1/PD-L1 interaction to activate T cells for killing tumors, we examined their cell toxicities of MDA-MB-231 and Jurkat T cells in MTT assay. […] Furthermore, Jurkat T cells were used to simulate primary T cells for investigating the immune toxicity of the treated compounds with the regular concentrations within 48 h.
(§2) The MDA-MB-231 and Jurkat cell line was provided by the Chinese Academy of Sciences Cell Bank. The cytotoxicity of the test compounds was determined using the MTT assay. Briefly, MDA-MB-231 and Jurkat cells were incubated at 37 °C in a humidified 5% CO2 incubator for 24 h in 96-microwell plates. Then, 100 μL of culture medium containing the test compounds at different concentrations was added to each well and incubated at 37 °C for another 48 h. The MTT was added and incubated for another 4 h, and the optical density was detected with a microplate reader at 570 nm. The IC50 values were calculated according to the dose-dependent curves.

hPD-L1 = hPD-L1 (Homo sapiens, UniProt Q9NZQ7); test: SPR binding affinity assay (Biacore T200); conditions: for LE: LE = -1.35log KD/Nheavy atoms (SPR KD); for kon: SPR association rate, read-out: Ka (M-1s-1) / Kon; for koff: SPR dissociation rate, read-out: Kd (s-1) / Koff; for Kd: SPR, 25 °C, 1:1 binding model
Experimental: To provide definitive evidence of direct binding to PD-L1 with small-molecule inhibitors, an SPR-based binding assay was performed using Biacore T200 instrument, which facilitates measurement of the kinetic parameters of ligand–protein complex formation. In this determination, hPD-L1/Fc was loaded on a Series S Sensor Chip Protein A. A9 and A15, with similar bioactivities in HTRF assay, were gradually subjected to this assay, and their kinetic parameters and the binding affinities were determined with the aid of Biacore evaluation software.
SPR analysis was carried out according to the method described by a previous article. The kinetic analysis for the interaction of small molecules with hPD-L1 was performed on a Biacore T200 (GE Healthcare Bio-sciences, Uppsala, Sweden) using Series S Sensor Chip Protein A (GE Healthcare Bio-sciences, Uppsala, Sweden, catalog # 29139131-AA). Briefly, Fc-hPD-L1 (Acro Biosystems, Cambridge, MA, USA, catalog #PD1-H5258) was diluted using 1 × PBS-P^+ buffer (phosphate buffer 1×, GE Healthcare Bio-sciences, catalog # 28-9950-84, enriched with 0.05% surfactant P20) containing 5% DMSO (Sigma-Aldrich, St. Louis, MO, America, catalog # D4540) and captured as the ligand (i.e., the target of small molecules) on protein A chip surface following Biacore T200 build-in protocol for kinetic/affinity analysis at a concentration of 10 μg/mL. The contact time and flow rates were set as 120 s and 10 μL/min for the ligand capture. Each experiment was performed using a pair of flow cells, one with ligand captured and the other kept as reference. A concentration gradient of analytes was freshly prepared in 1× PBS-P^+ buffer with 5% DMSO with at least five concentrations, and the concentration range was optimized according to different analytes. Analytes could flow through both ligand-captured flow cells and reference flow cells at the same rate (30 μL/min) and contact time (90 s). Solvent correction was included to avoid the impact of DMSO on surface plasmon effect during binding analysis. Extra washing of the flow system using 50% DMSO in 1×PBS-P^+ buffer was allowed to control carry over effects. For the regeneration of surface after each cycle (one-time ligand capture and binding of analyte at a single concentration) was carried out using 10 mM glycine pH 1.5 (GE Healthcare Bio-sciences, Uppsala, Sweden, catalog #BR-1003-54) at a flow rate of 30 μL/min for 30 s. Kinetic analysis was performed at 25 °C. Maximum binding response (Rmax) and equilibrium dissociation […] (KD) values were calculated using Biacore T200 Evaluation software following the 1:1 binding model.

[1] = system: Hep3B/OS-8/hPD-L1 and CD3+ T cells co-culture; test: IFN-γ production in Hep3B/OS-8/hPD-L1 and CD3+ T cell co-culture assay
PD-1/PD-L1 interaction = target: T1, PD-1/PD-L1 interaction (Homo sapiens, UniProt Q9NZQ7); test: HTRF-based PD-1/PD-L1 binding assay; conditions: for IC50: HTRF, two independent experiments; for LE: LE = −1.35 logIC50/Nheavy atoms (HTRF IC50)
T1 construct: purchased Cisbio 64ICP01PEG

Jurkat T cells = test: MTT non-specific cytotoxicity assay, Jurkat; assay type: cell-based; conditions: for EC50: Homo sapiens, Jurkat, MTT, 48 h, read-out: EC50 (μM)/Jurkat Toxicity; for immune toxicity in Jurkat T cells: regular concentrations within 48 h
Experimental: as §1, §2

Chain of hPD-L1 (Q9NZQ7 19-238 limits assumed): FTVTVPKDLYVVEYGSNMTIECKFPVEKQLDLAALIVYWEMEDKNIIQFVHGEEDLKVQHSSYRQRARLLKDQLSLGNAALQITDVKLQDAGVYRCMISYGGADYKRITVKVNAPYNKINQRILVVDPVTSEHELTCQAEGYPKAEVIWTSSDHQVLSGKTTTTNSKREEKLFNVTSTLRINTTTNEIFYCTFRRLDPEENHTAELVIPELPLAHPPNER
T1 sequence (Q9NZQ7 19-238 limits assumed): as above

Structure (SMILES)	IC50 (PD-1/PD-L1 interaction)	LE (PD-1/PD-L1 interaction)	melting point	increase in potency over compound A11 (PD-1/PD-L1 interaction; HTRF IC50 ratio)	solubility (Water solubility by HPLC)	EC50 (MDA-MB-231 cells)	direct killing of tumor cells (MDA-MB-231 cells)	LE (hPD-L1)	KD compared with that of A15 (hPD-L1; SPR KD ratio)	kon (hPD-L1)	koff (hPD-L1)	Kd (hPD-L1)	IFN-γ production / release ([1]; 72 h co-culture, ELISA, dose response)	promoting effect on IFN-γ production compared with BMS-202 ([1]; A9 at 5 μM)	promoting effect on IFN-γ production compared with Keytruda ([1]; A9 at 5 μM vs Keytruda at 5 μg/mL)	increase in activity as compared with A4 (PD-1/PD-L1 interaction; HTRF IC50 ratio)	EC50 (Jurkat T cells)	immune toxicity in Jurkat T cells (Jurkat T cells)
COc1nc(OCc2cccc(-c3ccccc3)c2C)ccc1CNCCNC(C)=O [BMS-202, reference compound]	–	–	–	–	90 µg/mL (≈ 215 µM)	–	–	–	–	–	–	–	–	–	–	–	–	–
COc1nc(-c2cccc(-c3ccccc3F)c2C)ccc1CNCCC(N)=O [Compound A9, 3-(((6-(2′-Fluoro-2-methyl-[1,1′-biphenyl]-3-yl)-2-methoxypyridin-3-yl)methyl)amino)propenamide]	0.00093 µM	0.43	–	–	126 µg/mL (≈ 321 µM)	11.1 µM	do not directly kill tumor cells	0.40	5 fold	538000 M⁻¹ s⁻¹	0.00196 s⁻¹	0.00364 µM	promote the dose-dependent release of IFN-γ; also recorded: significantly promote the production of IFN-γ in a dose-dependent manner; also recorded: potently induces the release of IFN-γ	significantly higher than that of BMS-202	comparable promoting effect on production of INF-γ; also recorded: comparable to that of Keytruda at 5 μg/mL	more than 23 fold	7.6 µM	lower cell toxicity
COc1nc(-c2cccc(-c3ccccc3Cl)c2C)ccc1CNCCC(N)=O [Compound A11]	0.00618 µM	0.39	49 to 51 °C	–	–	7.1 µM	do not directly kill tumor cells	–	–	–	–	–	–	–	–	–	5.5 µM	lower cell toxicity
COc1nc(-c2cccc(-c3ccccc3)c2C)ccc1CNCCC(N)=O [Compound A13]	0.00194 µM	0.43	127 to 128 °C	approximately 3 fold	–	> 10 µM	do not directly kill tumor cells	–	–	–	–	–	–	–	–	–	7.73 µM	–

More lines, main results first:

IC50 (PD-1/PD-L1 interaction)	LE (PD-1/PD-L1 interaction)	melting point	increase in potency over compound A11 (PD-1/PD-L1 interaction; HTRF IC50 ratio)	Structure (SMILES)	solubility (Water solubility by HPLC)	EC50 (MDA-MB-231 cells)	direct killing of tumor cells (MDA-MB-231 cells)	LE (hPD-L1)	KD compared with that of A15 (hPD-L1; SPR KD ratio)	kon (hPD-L1)	koff (hPD-L1)	Kd (hPD-L1)	IFN-γ production / release ([1]; 72 h co-culture, ELISA, dose response)	promoting effect on IFN-γ production compared with BMS-202 ([1]; A9 at 5 μM)	promoting effect on IFN-γ production compared with Keytruda ([1]; A9 at 5 μM vs Keytruda at 5 μg/mL)	increase in activity as compared with A4 (PD-1/PD-L1 interaction; HTRF IC50 ratio)	EC50 (Jurkat T cells)	immune toxicity in Jurkat T cells (Jurkat T cells)
0.00175 µM	0.41	48 to 51 °C	–	COc1nc(-c2cccc(-c3cccc(F)c3)c2C)ccc1CNCCC(N)=O [Compound A14, 3-(((6-(3′-Fluoro-2-methyl-[1,1′-biphenyl]-3-yl)-2-methoxypyridin-3-yl)methyl)amino)propenamide]	–	> 10 µM	do not directly kill tumor cells	–	–	–	–	–	–	–	–	–	> 10 µM	–
0.00097 µM	0.43	120 to 122 °C	–	COc1nc(-c2cccc(-c3ccc(F)cc3)c2C)ccc1CNCCC(N)=O [Compound A15]	–	10.2 µM	do not directly kill tumor cells	0.36	–	505000 M⁻¹ s⁻¹	0.0101 s⁻¹	0.0199 µM	–	–	–	–	5.5 µM	lower cell toxicity
